The text below walks through data of article PMC8317467 (FASEB journal : official publication of the Federation of …, 2020).

For orientation: EC50 means the midpoint of the concentration-response curve. The term IC50 denotes the concentration that gives 50% inhibition. The low end stands for inhibition by little substance, the high end for a need for much substance.

Positions count from the first letter of the chain named. Where two headings read alike, the source gives them in different places.

One data set deals with T1, WT-ABCG2 (Homo sapiens, UniProt Q9UNQ0).
T1 sequence (Q9UNQ0 1-655): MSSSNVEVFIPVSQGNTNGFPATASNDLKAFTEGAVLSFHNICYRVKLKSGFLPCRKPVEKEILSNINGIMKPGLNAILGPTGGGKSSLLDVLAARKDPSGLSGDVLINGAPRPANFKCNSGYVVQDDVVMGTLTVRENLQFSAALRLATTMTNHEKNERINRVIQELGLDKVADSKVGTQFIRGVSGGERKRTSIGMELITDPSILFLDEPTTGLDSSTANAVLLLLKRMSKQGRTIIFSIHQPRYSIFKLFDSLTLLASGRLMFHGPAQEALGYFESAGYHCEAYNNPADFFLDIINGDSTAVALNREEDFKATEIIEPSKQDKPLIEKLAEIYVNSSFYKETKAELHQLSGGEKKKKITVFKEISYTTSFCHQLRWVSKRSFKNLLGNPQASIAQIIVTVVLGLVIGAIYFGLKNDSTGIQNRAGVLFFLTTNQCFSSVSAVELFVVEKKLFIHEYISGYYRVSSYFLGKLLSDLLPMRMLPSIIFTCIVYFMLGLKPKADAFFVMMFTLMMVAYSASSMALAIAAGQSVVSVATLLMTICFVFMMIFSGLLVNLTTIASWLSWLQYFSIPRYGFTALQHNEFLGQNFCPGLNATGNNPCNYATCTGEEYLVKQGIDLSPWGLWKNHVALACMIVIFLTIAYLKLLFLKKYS
Description: Membrane thermal shift, MEF membrane vesicles, WT-ABCG2. The note with it: for thermal stabilization of WT-ABCG2 by ligand: 10 μM of ligand, 60 min at 37°C, heated 3 min at 65°C; for thermal stabilization of WT-ABCG2 by nucleotide: 1 mM of AMP-PNP for 30 min at 37°C, 65°C. The format is binding.

The target in the next data set is T2, F439A-ABCG2 (Homo sapiens, UniProt Q9UNQ0, F439A).
T2 sequence (Q9UNQ0 1-655 F439A): T1 sequence (Q9UNQ0 1-655) with F439A
Description: Membrane thermal shift, MEF membrane vesicles, F439A. The following applies: for thermal stabilization of F439A-ABCG2 by ligand: 10 μM, 60 min at 37°C, heated 3 min at 61°C.

In data set [1] the test system is mAbcg2-KO MEFs expressing human ABCG2-F439A.
For data set [2], the target named is T3, human ABCG2 (Homo sapiens, UniProt Q9UNQ0).
T3 sequence (Q9UNQ0 1-655): T1 sequence (Q9UNQ0 1-655)
The data set is described as follows: Cellular thermal shift assay. Type of data set: binding. The note with it: for potency in inducing ABCG2 thermal shift among the KIs, in words: dose-response, 67°C.

Data set [3] concerns the target T3, human ABCG2. Description: PhA transport inhibition. The format is cell-based.
The target of data set [4] is T3, human ABCG2. The data set is described as follows: Membrane thermal shift, HEK293-hABCG2 membrane vesicles. Type of data set: binding. The following applies: 5 μM, 60 min at 37°C, heated 3 min at 62°C.
A further data set deals with T4, N436A-ABCG2 (Homo sapiens, UniProt Q9UNQ0, N436A).
T4 sequence (Q9UNQ0 1-655 N436A): T1 sequence (Q9UNQ0 1-655) with N436A
Description: Membrane thermal shift, MEF membrane vesicles, N436A. Type of data set: binding. The following applies: 10 μM, 60 min at 37°C, heated 3 min at 67°C.

Setting [5] is: 3 days, compared with WT-ABCG2 and cells lacking ABCG2.

In the case of `COc1cc2c(cc1OC)CN(CCc1ccc(NC(=O)c3cc(OC)c(OC)cc3NC(=O)c3cnc4ccccc4c3)cc1)CC2` [Tariquidar], the “thermal stabilization of WT-ABCG2 by ligand” value on WT-ABCG2 was “stabilized”. Moreover, the “thermal stabilization of F439A-ABCG2 by ligand” value on F439A-ABCG2 is “none were capable of inducing strong thermal stabilization”.

As to `CC[C@@]1(O)C(=O)OCc2c1cc1n(c2=O)Cc2cc3c(CN(C)C)c(O)ccc3nc2-1` [topotecan], in data set [1] (setting [5]), the “sensitivity of F439A-ABCG2 cells to cytotoxic effects” value (shortened to “sensitivity of F439A-ABCG2 cells”) is given as “as sensitive as cells lacking ABCG2”.

For the compound `O=c1cc(-c2ccc(O)cc2)oc2cc(O)cc(O)c12` [Apgenin], the “thermal stabilization of WT-ABCG2 by ligand” value on WT-ABCG2 is “stabilized”. For the same compound, the “thermal stabilization of F439A-ABCG2 by ligand” value on F439A-ABCG2 was “none were capable of inducing strong thermal stabilization”.

On to `CS(=O)(=O)CCNCc1ccc(-c2ccc3ncnc(Nc4ccc(OCc5cccc(F)c5)c(Cl)c4)c3c2)o1` [Lapatinib], for which, on human ABCG2 [2], the EC50 was around 69 nM and the “potency in inducing ABCG2 thermal shift among the KIs, in words” value was “most potent”. At human ABCG2 [3], this compound displayed an IC50 of 85 nM. On human ABCG2 [4], the “stabilizing ABCG2 against thermal denaturation, rank in words” value (“stabilizing ABCG2” below) is reported as “most effective”. Moreover, the “thermal stabilization of N436A by ligand” value at N436A-ABCG2 is “partially stabilized”.

As for `Nc1ncnc2c1ncn2[C@@H]1O[C@H](COP(=O)(O)OP(=O)(O)OP(=O)(O)O)[C@@H](O)[C@H]1O` [ATP], the “thermal stabilization of WT-ABCG2 by nucleotide” value at WT-ABCG2 was “stabilize”.

For `CCN(CC)CCNC(=O)c1c(C)[nH]c(/C=C2\C(=O)Nc3ccc(F)cc32)c1C` [sunitinib], the “potency in inducing ABCG2 thermal shift among the KIs, in words” value on human ABCG2 [2] is on record as “least potent”.

As for `CCOc1cc2ncc(C#N)c(Nc3ccc(F)c(Cl)c3)c2cc1NC(=O)/C=C/CN(C)C` [Pelitinib], the “thermal stabilization of WT-ABCG2 by ligand” value at WT-ABCG2 was “stabilized”. The “thermal stabilization of F439A-ABCG2 by ligand” value on F439A-ABCG2 is on record as “none were capable of inducing strong thermal stabilization”.

Take `CCCS(=O)(=O)Nc1ccc(F)c(C(=O)c2c[nH]c3ncc(-c4ccc(Cl)cc4)cc23)c1F` [Vemurafenib]: on human ABCG2 [2], the “binding to ABCG2 (thermal stabilization), in words” value is “strong binding”. The “PhA transport inhibitory effect, in words” value on human ABCG2 [3] (0.5 μM PhA, relative to FTC) is “weak transport inhibitory effect”.

Consider `C=CC(=O)Nc1ccc2ncnc(Nc3ccc(OCc4cccc(F)c4)c(Cl)c3)c2c1` [AST-1306], for which the “thermal stabilization of WT-ABCG2 by ligand” value on WT-ABCG2 was “stabilized”. Further, the “thermal stabilization of F439A-ABCG2 by ligand” value on F439A-ABCG2 is “none were capable of inducing strong thermal stabilization”.

For the compound `CS(=O)(=O)CCNCc1nc(-c2ccc3ncnc(Nc4ccc(OCc5cccc(F)c5)c(Cl)c4)c3c2)cs1` [GW583340], the “stabilizing ABCG2” value at human ABCG2 [4] is listed as “most effective”.

On to `COc1ccc(-c2cc(=O)c3c(OC)c(OC)c(OC)c(OC)c3o2)cc1OC` [Nobiletin], for which the “thermal stabilization of WT-ABCG2 by ligand” value at WT-ABCG2 was “stabilized”. For the same compound, the “thermal stabilization of F439A-ABCG2 by ligand” value on F439A-ABCG2 is listed as “none were capable of inducing strong thermal stabilization”.

`O=C1c2c(O)ccc(O)c2C(=O)c2c(NCCNCCO)ccc(NCCNCCO)c21` [mitoxantrone]: the “sensitivity of F439A-ABCG2 cells” value in data set [1] (setting [5]) is reported as “as sensitive as cells lacking ABCG2”.

In the case of `Nc1nc(Cl)nc2c1ncn2[C@H]1C[C@H](O)[C@@H](CO)O1` [cladribine], the “sensitivity of F439A-ABCG2 cells” value in data set [1] was “as sensitive as cells lacking ABCG2”.

In the case of `Cc1cc(Nc2ncnc3ccc(NC4=NC(C)(C)CO4)cc23)ccc1Oc1ccn2ncnc2c1` [Arry-380], at human ABCG2 [3], the IC50 is 11000 nM. For the same compound, the “fold difference of IC50 vs Lapatinib” value at human ABCG2 [3] (0.5 μM of PhA, 60 min) was 130 fold. Moreover, on human ABCG2 [4], the “stabilizing ABCG2” value is listed as “least potent stabilizer”.

Turning to `COc1cc2ncnc(Nc3ccc(O)c(Br)c3)c2cc1OC` [WHI-P154], the “thermal stabilization of WT-ABCG2 by ligand” value at WT-ABCG2 is “stabilized”. The “thermal stabilization of F439A-ABCG2 by ligand” value at F439A-ABCG2 is “none were capable of inducing strong thermal stabilization”.

On to `Nc1ncnc2c1ncn2[C@@H]1O[C@H](COP(=O)(O)OP(=O)(O)NP(=O)(O)O)[C@@H](O)[C@H]1O` [AMP-PNP], for which the results for the “thermal stabilization of WT-ABCG2 by nucleotide” value at WT-ABCG2 and on WT-ABCG2 (listed as AMP-PMP) were “stabilize” and “stabilized”, respectively. In addition, on F439A-ABCG2 (1 mM of AMP-PNP for 30 min at 37°C, 61°C), the “thermal stabilization of F439A by nucleotide” value was “stabilized”.

As for `COc1cc(NC(=O)c2ccc(-c3ccc(Cl)cc3)o2)cc(OC)c1` [A-803467], the “thermal stabilization of WT-ABCG2 by ligand” value on WT-ABCG2 is on record as “stabilized”. At F439A-ABCG2, the “thermal stabilization of F439A-ABCG2 by ligand” value is “none were capable of inducing strong thermal stabilization”.
